Reference: patent US9169241B2, “Quinolinyloxyphenylsulfonamides” (Max-Planck-Gesellschaft Zur Forderung der Wissenschaften …, priority 2009, dated 2015)

Key:
[1] = test system: Hs578T; assay: Matrigel outgrowth assay/branching assay; type: cell-based; conditions: Homo sapiens, Hs-578T; HS578T cell line; Table Ib; read-out: Total branching inhibition in Matrigel HS578T
Method: The Matrigel outgrowth assay is based on the ability of tumor cell to penetrate a solid gel of extracellular matrix proteins mimicking the metastasis formation in vivo. While cells with low invasive potential appear as roundish cell or cell cluster, cells with high invasive potential penetrate the Matrigel and form polymorphic structures. In detail 65 μl of Matrigel matrix (Matrigel™ Matrix, BD Biosciences, Bedford, Mass., USA) with a concentration of 3 mg/ml have been polymerized in 96 well plates for 1 h at 37° C. Subsequently 5000 cell/well were seeded into each well containing cell culture medium and indicated compound with concentrations of 3.125 μM, 1.56 μM and 0.78 μM as well as DMSO control. After 48 h, 72 h and 96 h images of cell were taken on an inverted microscope using a 5× objective (Zeiss Axiovert S100 microscope Carl Zeiss UK, Welwyn Garden City, UK). Only compound concentrations were total branching inhibition was evident were accounted as positive. Method was used as previously described, with some modifications (Thompson E W, et al. Association of increased basement membrane invasiveness with absence of estrogen receptor and expression of vimentin in human breast cancer cell lines. J Cell Physiol 1992; 150:534-44).

[2] = test system: Hs578T; assay: Cell vitality assay (ATP assay, CellTiter-Glo); type: cell-based; conditions: Homo sapiens, Hs-578T; HS578T cell line, 72 h; Table Ib; read-out: IC50 ATP-Assay HS578T after 72 h
Method: The CellTiter-Glo® Luminescent Cell Viability Assay (Promega Corporation. Madison, Wis., USA) is method a determining the number of viable cells in culture based on quantification of the ATP being present which is an indicator of metabolically active cells was used according to manufacturers protocol, In detail the assay was performed in a 96 well format were 1000 cells/well were incubated with indicated compound at concentration of 12.5 μM, 6.25 μM, 3.125 μM, 1.56 μM, 0.78 μM, 0.39 μM, 0.195 μM as well as DMSO control for 72 h in 100 μl cell culture medium. IC50 values were calculated as 50% of ATP amount compared to DMSO control.
Protocol for the CellTiter-Glo® Luminescent Cell Viability Assay • 1. Prepare opaque-walled multiwell plates with mammalian cells in culture medium, 100 μl per well for 96-well plates • 2. Prepare control wells containing medium without cells to obtain a value for background luminescence. • 3. Add the compound to be tested to experimental wells, and incubate according to culture protocol. • 4. Equilibrate the plate and its contents at room temperature for approximately 30 minutes. • 5. Add a volume of CellTiter-Glo® Reagent (Promega Corporation. Madison, Wis.) equal to the volume of cell culture medium present in each well. • 6. Mix contents for 2 minutes on an orbital shaker to induce cell lysis. • 7. Allow the plate to incubate at room temperature for 10 minutes to stabilize luminescent signal. • 8. Record luminescence on Microplate Luminometer LB96V (Berthold Tchnologies, Bad Wildbad, Germany). An integration time of 0.1 and 1 second per well

[3] = test system: Hs578T; assay: Wound healing migration assay; type: cell-based; conditions: Homo sapiens, Hs-578T; HS578T cell line; Table Ib
Method: This method mimics cell migration during wound healing in vivo. The basic steps involve creating a “wound” in a cell monolayer, capturing the images at the beginning and at regular intervals during cell migration to close the wound, and comparing the images to quantify the migration rate of the cells. In detail, 150000 cell/24 well have been seeded and allowed to form a monolayer overnight. Subsequently a “wound” or “scratch” has been performed with a 1000 μl pipette tip. The STDV of wound size is normally below 10% at time point t0. The assay was stopped by fixation with 0.05% Crystal violet/20% methanol when control scratches were closed. The assay was terminated between 48 h and 72 h depending on the migration potential of the indicated cell line. The “wounds” were visualized with a Zeiss Axiovert S100 microscope (Carl Zeiss UK, Welwyn Garden City, UK). The tested compounds were used at 12.5 μM, 6.25, 3.125 μM and DMSO control. IC50 values have been calculated as 50% wound size in between t0 and t48 or t72.

Structure (SMILES)	IC50 [1] [µM]	IC50 [2] [µM]	melting point [°C]	IC50 [3] [µM]
COc1cc2c(Oc3ccc(NS(=O)(=O)c4c[nH]c(C)n4)cc3F)ccnc2cc1OCCCN1CCCCC1C (stereo not drawn) [Example 149, 2-Methyl-1H-imidazole-4-sulfonic acid (3-fluoro-4-{6-methoxy-7-[3-(2-methyl-piperidin-1-yl)-propoxy]-quinolin-4-yloxy}-phenyl)-amide]	10 to 25	12.5 to 50	219 to 220	12.5 to 50
COc1cc2c(Oc3cccc(NS(=O)(=O)c4ccsc4)c3)ccnc2cc1OCCCN1CCN(C)CC1 [Example 133, Thiophene-3-sulfonic acid (3-{6-methoxy-7-[3-(4-methyl-piperazin-1-yl)-propoxy]-quinolin-4-yloxy}-phenyl)-amide]	≤ 10	≤ 12.5	176 to 178	≤ 12.5
COc1cc2c(Oc3cc(NS(=O)(=O)c4c(Cl)cccc4Cl)ccc3F)ccnc2cc1OCCCN1CCC(C)CC1 [Example 192, 2,6-Dichloro-N-(4-fluoro-3-{6-methoxy-7-[3-(4-methyl-piperidin-1-yl)-propoxy]-quinolin-4-yloxy}-phenyl)-benzenesulfonamide]	10 to 25	≤ 12.5	116 to 118	12.5 to 50
COc1cc2c(Oc3cccc(NS(=O)(=O)c4c[nH]c(C)n4)c3)ccnc2cc1OCCCN1CCN(C)CC1 [Example 141, 2-Methyl-1H-imidazole-4-sulfonic acid (3-{6-methoxy-7-[3-(4-methyl-piperazin-1-yl)-propoxy]-quinolin-4-yloxy}-phenyl)-amide]	10 to 25	12.5 to 50	118 to 120	12.5 to 50
COc1ccc2nccc(Oc3ccc(NS(=O)(=O)c4c(F)cccc4F)cc3F)c2c1 [Example 200, 2,6-Difluoro-N-[3-fluoro-4-(6-methoxy-quinolin-4-yloxy)-phenyl]-benzenesulfonamide]	10 to 25	12.5 to 50	227 to 228	12.5 to 50
COc1cc2c(Oc3cccc(NS(=O)(=O)c4ccn(C)n4)c3)ccnc2cc1OCCCN1CCN(C)CC1 [Example 139, 1-Methyl-1H-pyrazole-3-sulfonic acid (3-{6-methoxy-7-[3-(4-methyl-piperazin-1-yl)-propoxy]-quinolin-4-yloxy}-phenyl)-amide]	10 to 25	12.5 to 50	87 to 89	12.5 to 50
COc1cc2c(Oc3ccc(NS(=O)(=O)c4ccccc4C(F)(F)F)cc3F)ccnc2cc1OCCCCOC(C)=O [Example 212, Acetic acid 4-{4-[2-fluoro-4-(2-trifluoromethyl-benzenesulfonylamino)-phenoxy]-6-methoxy-quinolin-7-yloxy}-butyl ester]	10 to 25	12.5 to 50	143 to 145	12.5 to 50
COc1cc2c(Oc3ccc(NS(=O)(=O)c4c(C)nn(C)c4C)cc3F)ccnc2cc1OCCCN1CCOCC1 [Example 161, 1,3,5-Trimethyl-1H-pyrazole-4-sulfonic acid {3-fluoro-4-[6-methoxy-7-(3-morpholin-4-yl-propoxy)-quinolin-4-yloxy]-phenyl}-amide]	10 to 25	≤ 12.5	163 to 164	12.5 to 50
CCOC(=O)COc1cc2nccc(Oc3ccc(NS(=O)(=O)c4ccccc4F)cc3F)c2cc1OC [Example 92, {4-[2-Fluoro-4-(2-fluoro-benzenesulfonylamino)-phenoxy]-6-methoxy-quinolin-7-yloxy}-acetic acid ethyl ester]	10 to 25	≤ 12.5	87 to 89	12.5 to 50
COc1ccc2nccc(Oc3ccc(NS(=O)(=O)c4ccc5ccccc5c4)cc3F)c2c1 [Example 205, Naphthalene-2-sulfonic acid [3-fluoro-4-(6-methoxy-quinolin-4-yloxy)-phenyl]-amide]	10 to 25	12.5 to 50	220 to 222	12.5 to 50
COc1cc2c(Oc3ccc(NS(=O)(=O)c4ccccc4C(F)(F)F)cc3F)ccnc2cc1OCCCNC(=O)OC(C)(C)C [Example 120, (3-{4-[2-Fluoro-4-(2-trifluoromethyl-benzenesulfonylamino)-phenoxy]-6-methoxy-quinolin-7-yloxy}-propyl)-carbamic acid tert-butyl ester]	10 to 25	12.5 to 50	80 to 82	12.5 to 50
COc1cc2c(Oc3cccc(NS(=O)(=O)c4cccs4)c3)ccnc2cc1OCCCN1CCN(C)CC1 [Example 129, Thiophene-2-sulfonic acid (3-{6-methoxy-7-[3-(4-methyl-piperazin-1-yl)-propoxy]-quinolin-4-yloxy}-phenyl)-amide]	≤ 10	≤ 12.5	188 to 189	≤ 12.5
COc1cc2c(Oc3cc(NS(=O)(=O)c4ccccc4OC(F)(F)F)ccc3F)ccnc2cc1OCCCN1CCC(C)CC1 [Example 190, N-(4-Fluoro-3-{6-methoxy-7-[3-(4-methyl-piperidin-1-yl)-propoxy]-quinolin-4-yloxy}-phenyl)-2-trifluoromethoxy-benzenesulfonamide]	10 to 25	12.5 to 50	80 to 82	12.5 to 50
COc1cc2c(Oc3ccc(NS(=O)(=O)c4cc(F)ccc4F)cc3F)ccnc2cc1OCCCCOC(C)=O [Example 211, Acetic acid 4-{4-[4-(2,5-difluoro-benzenesulfonylamino)-2-fluoro-phenoxy]-6-methoxy-quinolin-7-yloxy}-butyl ester]	10 to 25	≤ 12.5	165 to 167	≤ 12.5
COC(=O)c1sccc1S(=O)(=O)Nc1cccc(Oc2ccnc3cc(OCCCN4CCN(C)CC4)c(OC)cc23)c1 [Example 135, 3-(3-{6-Methoxy-7-[3-(4-methyl-piperazin-1-yl)-propoxy]-quinolin-4-yloxy}-phenylsulfamoyl)-thiophene-2-carboxylic acid methyl ester]	10 to 25	12.5 to 50	84 to 86	12.5 to 50
COc1cc2c(Oc3ccc(NS(=O)(=O)c4c(C)nn(C)c4C)cc3F)ccnc2cc1OCCCN1CCCCC1 [Example 159, 1,3,5-Trimethyl-1H-pyrazole-4-sulfonic acid {3-fluoro-4-[6-methoxy-7-(3-piperidin-1-yl-propoxy)-quinolin-4-yloxy]-phenyl}-amide]	10 to 25	≤ 12.5	96 to 98	12.5 to 50
COc1cc2c(Oc3ccc(NS(=O)(=O)c4ccn(C)n4)cc3F)ccnc2cc1OCCCN1CCN(C)CC1 [Example 166, 1-Methyl-1H-pyrazole-3-sulfonic acid (3-fluoro-4-{6-methoxy-7-[3-(4-methyl-piperazin-1-yl)-propoxy]-quinolin-4-yloxy}-phenyl)-amide]	10 to 25	≤ 12.5	157 to 159	12.5 to 50
COc1cc2c(Oc3cccc(NS(=O)(=O)c4ccco4)c3)ccnc2cc1OCCCN1CCN(C)CC1 [Example 137, Furan-2-sulfonic acid (3-{6-methoxy-7-[3-(4-methyl-piperazin-1-yl)-propoxy]-quinolin-4-yloxy}-phenyl)-amide]	10 to 25	12.5 to 50	176 to 177	12.5 to 50
